Data on four compounds can be found in patent US9120820B2, “Fluorescent molecular probes for use in assays that measure test compound competitive binding with SAM-utilizing proteins” (CAYMAN CHEMICAL COMPANY, INCORPORATED, priority 2011, dated 2015).

Experiment [1] deals with T1, GLP (Homo sapiens, UniProt Q9H9B1).
T1 sequence (Q9H9B1 1-1298): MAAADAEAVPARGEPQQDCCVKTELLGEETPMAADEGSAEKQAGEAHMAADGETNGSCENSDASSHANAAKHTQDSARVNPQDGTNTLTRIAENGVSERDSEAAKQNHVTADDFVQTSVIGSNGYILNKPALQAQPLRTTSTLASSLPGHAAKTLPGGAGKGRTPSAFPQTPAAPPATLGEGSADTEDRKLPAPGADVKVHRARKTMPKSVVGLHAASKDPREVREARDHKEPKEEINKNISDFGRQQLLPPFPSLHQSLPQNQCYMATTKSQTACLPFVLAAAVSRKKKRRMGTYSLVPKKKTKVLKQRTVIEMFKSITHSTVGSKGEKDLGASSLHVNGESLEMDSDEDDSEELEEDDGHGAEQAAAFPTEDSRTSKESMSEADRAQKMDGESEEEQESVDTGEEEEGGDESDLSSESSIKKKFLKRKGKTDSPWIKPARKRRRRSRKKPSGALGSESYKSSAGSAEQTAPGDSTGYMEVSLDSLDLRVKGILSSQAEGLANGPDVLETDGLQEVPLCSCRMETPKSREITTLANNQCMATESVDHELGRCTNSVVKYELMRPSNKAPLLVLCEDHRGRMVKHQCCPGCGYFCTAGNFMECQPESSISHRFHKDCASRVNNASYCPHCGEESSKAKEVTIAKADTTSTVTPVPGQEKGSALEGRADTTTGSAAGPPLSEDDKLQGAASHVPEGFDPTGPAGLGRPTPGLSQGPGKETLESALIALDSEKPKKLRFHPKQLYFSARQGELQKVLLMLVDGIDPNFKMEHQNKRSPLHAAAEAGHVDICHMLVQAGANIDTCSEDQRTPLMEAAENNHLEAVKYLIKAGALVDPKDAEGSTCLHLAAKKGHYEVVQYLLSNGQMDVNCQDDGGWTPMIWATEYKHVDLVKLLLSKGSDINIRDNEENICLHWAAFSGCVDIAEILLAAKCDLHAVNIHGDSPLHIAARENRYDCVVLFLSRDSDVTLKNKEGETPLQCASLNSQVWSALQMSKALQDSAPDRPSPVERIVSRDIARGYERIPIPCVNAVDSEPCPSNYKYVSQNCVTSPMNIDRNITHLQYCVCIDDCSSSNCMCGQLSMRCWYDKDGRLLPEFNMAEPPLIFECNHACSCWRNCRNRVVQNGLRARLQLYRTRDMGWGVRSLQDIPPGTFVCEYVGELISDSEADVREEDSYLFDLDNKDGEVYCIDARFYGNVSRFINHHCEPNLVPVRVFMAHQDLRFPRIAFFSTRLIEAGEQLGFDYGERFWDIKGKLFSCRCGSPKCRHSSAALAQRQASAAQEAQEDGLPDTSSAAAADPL
As to the kind of experiment: Radiometric methyltransferase assay, GLP. The class given is biochemical. Conditions: GLP 10 nM; compound 10 μM, 1 μM, or 0.1 μM; FIG. 13. The method, then: (§1) Reagents: Compound 16A was prepared by the method described in Example 4 and illustrated in FIG. 5. The Compounds 20A-iv and 20A-iii were prepared according to methods described in Example 6 and illustrated in FIG. 7. Enzymes were obtained from the Cayman Catalog with the exception of PRMT4 and PRMT6, which were produced in baculovirus and purified to near homogeneity using Ni-affinity chromatography. Human core histones were purified from HeLa nuclear pellet per the method of Coté et al. S-adenosylmethionine (SAM) was obtained from Sigma-Aldrich (Cat #A7007) and S-[methyl-3H]-SAM was obtained from Perkin-Elmer ([…]). Methods: […] To this was added enzyme diluted to provide a final assay concentration (GLP: 10 nM; PRMT1: 100 nM; SET7/9: 120 nM; PRDM9: 120 nM; PRMT4: 150 nM; PRMT6: 120 nM; G9a: 200 nM) and the compound was allowed to preincubate for 10 minutes at room temperature. […] Samples were mixed immediately after quenching and transferred to a 96-well GFC Uni-Filter microtiter filter plate (Perkin Elmer, Cat#6005174) that contained 50 μl of 20% TCA. Samples were allowed to precipitate for at least 5 minutes at room temperature. The samples were filtered onto the GFC membrane and washed four times with 100 μl of 10% TCA and once with 100 μl of 95% EtOH. To each well was added 25 μl of MicroScint-20 (Perkin-Elmer Cat#6013621) and samples were analyzed using a TopCount NXT microplate scintillation counter. The experiment was performed one time in duplicate for all compound concentrations tested and in triplicate for the vehicle and no enzyme controls. All data was analyzed in GraphPad Prism (v. 5.04).

Experiment [2] has as its target T2, PRMT1 (Homo sapiens, UniProt Q99873).
T2 construct: purchased Cayman
The experiment is described as follows: Radiometric methyltransferase assay, PRMT1. The format is biochemical. The settings on record: PRMT1 100 nM; compound 10 μM, 1 μM, or 0.1 μM; FIG. 13. The method, then: as §1

For experiment [3], the target named is T3, SET7/9 (Homo sapiens, UniProt Q8WTS6).
T3 construct: purchased Cayman 10320
T3 sequence (Q8WTS6 1-366): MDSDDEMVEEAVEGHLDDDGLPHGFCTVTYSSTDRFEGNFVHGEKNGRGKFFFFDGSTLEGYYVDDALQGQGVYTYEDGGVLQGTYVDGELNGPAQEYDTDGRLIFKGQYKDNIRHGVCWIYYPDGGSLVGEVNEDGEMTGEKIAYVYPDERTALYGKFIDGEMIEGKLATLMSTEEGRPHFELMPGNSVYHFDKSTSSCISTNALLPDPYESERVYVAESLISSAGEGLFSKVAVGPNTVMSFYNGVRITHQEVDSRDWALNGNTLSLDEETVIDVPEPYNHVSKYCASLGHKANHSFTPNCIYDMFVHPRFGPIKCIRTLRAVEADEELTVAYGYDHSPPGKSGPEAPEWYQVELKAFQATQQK
The experiment is described as follows: Radiometric methyltransferase assay, SET7/9. The class given is biochemical. Conditions: SET7/9 120 nM; compound 10 μM, 1 μM, or 0.1 μM; FIG. 13. Here is the method:
as §1

Experiment [4] addresses T4, PRMT6 (Homo sapiens, UniProt Q96LA8).
T4 construct: made in house; host or cells: baculovirus expression
As to the kind of experiment: Radiometric methyltransferase assay, PRMT6. The format is biochemical. The settings on record: PRMT6 120 nM; compound 10 μM, 1 μM, or 0.1 μM; FIG. 13. Here is the method:
as §1

For experiment [5], the target named is T1, GLP. The experiment is described as follows: Fluorescence polarization saturation binding of fluorescent probe to GLP. The settings on record: saturation-binding format, mean ± SEM, read-out: Sinefungin Probe 1A Affinity. Here is the method:
Sinefungin Probe 1A was tested for the ability to bind to 16 proteins, including several non-methlytransferase protein controls (Table 2). This probe binds to 4 methyltransferases (SET7/9, G9a, GLP, MLL) with Kd values <2 μM.

T4 sequence (Q96LA8 whole entry, species assumed): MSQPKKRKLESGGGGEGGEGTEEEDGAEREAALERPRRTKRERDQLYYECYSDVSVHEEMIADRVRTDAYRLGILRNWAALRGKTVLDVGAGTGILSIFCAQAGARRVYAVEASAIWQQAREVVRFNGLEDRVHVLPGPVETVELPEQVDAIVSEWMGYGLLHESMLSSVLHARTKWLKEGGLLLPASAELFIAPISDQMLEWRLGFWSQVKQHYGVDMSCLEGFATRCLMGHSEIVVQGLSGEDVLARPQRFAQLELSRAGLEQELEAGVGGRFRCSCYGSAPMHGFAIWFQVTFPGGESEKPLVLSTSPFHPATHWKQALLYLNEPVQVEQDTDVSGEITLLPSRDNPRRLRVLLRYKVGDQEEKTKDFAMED
T2 sequence (Q99873 whole entry): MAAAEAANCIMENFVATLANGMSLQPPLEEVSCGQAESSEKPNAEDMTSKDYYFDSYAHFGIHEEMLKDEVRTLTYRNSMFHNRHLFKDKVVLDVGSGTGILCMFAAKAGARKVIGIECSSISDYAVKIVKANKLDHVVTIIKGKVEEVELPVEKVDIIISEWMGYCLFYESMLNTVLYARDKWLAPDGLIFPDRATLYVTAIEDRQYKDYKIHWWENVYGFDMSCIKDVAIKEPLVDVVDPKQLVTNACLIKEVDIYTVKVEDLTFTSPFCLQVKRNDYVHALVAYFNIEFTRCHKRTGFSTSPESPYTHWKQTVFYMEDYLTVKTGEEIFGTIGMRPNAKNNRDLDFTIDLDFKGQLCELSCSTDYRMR

For `CSC[C@H]1O[C@@H](n2cnc3c(N)nc(NCCNC(=O)OC(C)(C)C)nc32)[C@H](O)[C@@H]1O` [Compound 16A, tert-butyl (2-((6-amino-9-((2R,3R,4S,5S)-3,4-dihydroxy-5-((methylthio)methyl)tetrahydrofuran-2-yl)-9H-purin-2-yl)amino)ethyl)carbamate], the “inhibition of enzymatic activity” value was “not dramatically altering the activity” in experiment [1], “inhibits” in experiment [2], “not dramatically altering the activity” in experiment [3] and “not dramatically altering the activity” in experiment [4].
For `CCNC[C@H]1O[C@@H](n2cnc3c(N)nc(Cl)nc32)[C@H](O)[C@@H]1O` [Compound 20A-iv, 2-chloroadenosine-5′-N-ethylamine], the “inhibition of enzymatic activity” value in experiment [1], in experiment [2], in experiment [3] and in experiment [4] was “did not show appreciable inhibition” in each case.
Consider `CCNC(=O)[C@H]1O[C@@H](n2cnc3c(N)nc(Cl)nc32)[C@H](O)[C@@H]1O` [Compound 20A-iii, 2-chloroadenosine-5′-N-ethylcarboxamide], for which the “inhibition of enzymatic activity” value is listed as “did not show appreciable inhibition” in experiment [1], “did not show appreciable inhibition” in experiment [2], “did not show appreciable inhibition” in experiment [3] and “some modest inhibition” in experiment [4].
For `Nc1ncnc2c1ncn2[C@@H]1O[C@H](C[C@@H](N)CC[C@H](N)C(=O)O)[C@@H](OCc2cnnn2CCCCCCNC(=O)OC2CCN(C(=O)c3ccccc3C3=c4cc5c6c(c4Oc4c3cc3c7c4CCCN7CCC3)CCC[N+]=6CCC5)CC2)[C@H]1O` [Sinefungin Probe 1A], the Kd in experiment [5] was found to be 580 ± 50 nM.
